Results as given in patent publication US9744158B2, “Veterinary antiprolactinic composition for ruminants” (CEVA SANTE ANIMALE, priority 2008, dated 2017).

System: gestating cows
Assay: Clinical safety study (abortion, fetal toxicity) in gestating ruminants (Example 3)
Assay type: in vivo
Conditions: two injections at interval of 48 hours, 25 mcg/kg
Method: This study aims to show the absence of risks such as abortions and fetus toxicity during the use of cabergoline in gestating ruminants even in the case of an overdose of cabergoline based veterinary compositions according to the regimen prescribed in the present invention. Groups of cows at different gestating stages receive the treatment at different doses: • 3 months of gestation (6 animals), dose of 15 mcg/kg—2 injections at an interval of 48 hours • 7 to 8 months of gestation: (5 animals), dose of 15 mcg/kg—2 injections at an interval of 48 hours • 6.5 to 7.5 months of gestation: (11 animals), dose of 25 mcg/kg—2 injections an interval of 48 hours
The formulation described in the Example 1, containing 500 mcg/ml of cabergoline in injectable solution is used in this study.
Regular clinical exams were conducted during a period lasting from 7 days before the treatment to 15 days after the treatment:
Daily general inspection and abortions,
Clinical exam of the genital tract including transrectal palpation and an ultrasound, in order to evaluate the suffering and fetal viability.
Blood samplings are conducted one day before the treatment and 15 days after the treatment to follow the plasmatic concentrations of different hormones and proteins indicating the health of the placenta and fetus, such as progesterone, estrone sulfate and the PAG (Pregnancy Associated Glycoprotein). […]

## C=CCN1C[C@H](C(=O)N(CCCN(C)C)C(=O)NCC)C[C@@H]2c3cccc4[nH]cc(c34)C[C@H]21 [cabergoline, N-[3-(Dimethylamino)propyl]-N-[(ethylamino)carbonyl]-6-(2-propenyl)-8 g-ergoline-8-carboxamide]
  abortions: do not provoke any abortions
  harmful effect on the gestation, viability and health of the new born calves: neither do they have any harmful effect
